Where only a bound is given, the exact number is not on record here.

In this assay the target is T1, CDK12 complexed with Cyclin K (Homo sapiens, UniProt Q9NYV4).
T1 construct: GST (N)
T1 sequence (Q9NYV4 whole entry): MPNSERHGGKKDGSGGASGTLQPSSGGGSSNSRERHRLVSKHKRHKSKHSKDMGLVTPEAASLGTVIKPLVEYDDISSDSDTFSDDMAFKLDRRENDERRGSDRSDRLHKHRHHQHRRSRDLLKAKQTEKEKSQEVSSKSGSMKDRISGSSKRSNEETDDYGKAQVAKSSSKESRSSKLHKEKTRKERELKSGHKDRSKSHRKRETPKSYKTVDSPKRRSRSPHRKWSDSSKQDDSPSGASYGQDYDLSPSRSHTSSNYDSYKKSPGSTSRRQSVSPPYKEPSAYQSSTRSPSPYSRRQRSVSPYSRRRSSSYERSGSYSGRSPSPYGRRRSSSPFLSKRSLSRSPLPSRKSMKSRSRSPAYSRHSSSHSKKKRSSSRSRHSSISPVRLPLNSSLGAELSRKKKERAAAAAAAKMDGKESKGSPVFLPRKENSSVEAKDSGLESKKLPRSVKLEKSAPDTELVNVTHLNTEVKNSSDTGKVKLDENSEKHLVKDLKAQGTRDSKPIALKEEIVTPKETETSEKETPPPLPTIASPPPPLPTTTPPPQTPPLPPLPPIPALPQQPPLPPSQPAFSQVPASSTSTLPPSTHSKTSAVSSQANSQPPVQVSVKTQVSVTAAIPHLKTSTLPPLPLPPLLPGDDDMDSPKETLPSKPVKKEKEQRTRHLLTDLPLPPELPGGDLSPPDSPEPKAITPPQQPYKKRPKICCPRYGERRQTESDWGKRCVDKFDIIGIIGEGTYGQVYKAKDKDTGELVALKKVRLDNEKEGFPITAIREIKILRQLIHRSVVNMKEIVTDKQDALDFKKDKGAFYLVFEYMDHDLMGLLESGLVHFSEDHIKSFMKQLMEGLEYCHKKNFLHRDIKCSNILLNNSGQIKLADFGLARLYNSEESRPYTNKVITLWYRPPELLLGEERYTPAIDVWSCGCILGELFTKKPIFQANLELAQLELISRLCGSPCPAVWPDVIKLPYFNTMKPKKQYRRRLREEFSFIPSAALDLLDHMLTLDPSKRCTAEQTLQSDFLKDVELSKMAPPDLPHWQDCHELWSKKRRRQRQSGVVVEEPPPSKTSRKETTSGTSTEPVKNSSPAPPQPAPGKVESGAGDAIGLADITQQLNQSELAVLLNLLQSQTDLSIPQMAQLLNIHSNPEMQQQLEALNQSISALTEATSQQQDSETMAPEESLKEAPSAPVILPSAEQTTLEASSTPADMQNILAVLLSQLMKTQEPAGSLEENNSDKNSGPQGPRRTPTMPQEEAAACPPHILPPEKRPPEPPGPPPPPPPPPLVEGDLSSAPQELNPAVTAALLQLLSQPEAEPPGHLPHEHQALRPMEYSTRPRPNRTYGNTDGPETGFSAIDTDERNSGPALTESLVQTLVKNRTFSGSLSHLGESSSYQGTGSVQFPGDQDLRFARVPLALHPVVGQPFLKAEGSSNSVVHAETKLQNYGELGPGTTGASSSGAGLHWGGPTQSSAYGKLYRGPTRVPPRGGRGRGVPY
T1 sequence (O75909 whole entry partner): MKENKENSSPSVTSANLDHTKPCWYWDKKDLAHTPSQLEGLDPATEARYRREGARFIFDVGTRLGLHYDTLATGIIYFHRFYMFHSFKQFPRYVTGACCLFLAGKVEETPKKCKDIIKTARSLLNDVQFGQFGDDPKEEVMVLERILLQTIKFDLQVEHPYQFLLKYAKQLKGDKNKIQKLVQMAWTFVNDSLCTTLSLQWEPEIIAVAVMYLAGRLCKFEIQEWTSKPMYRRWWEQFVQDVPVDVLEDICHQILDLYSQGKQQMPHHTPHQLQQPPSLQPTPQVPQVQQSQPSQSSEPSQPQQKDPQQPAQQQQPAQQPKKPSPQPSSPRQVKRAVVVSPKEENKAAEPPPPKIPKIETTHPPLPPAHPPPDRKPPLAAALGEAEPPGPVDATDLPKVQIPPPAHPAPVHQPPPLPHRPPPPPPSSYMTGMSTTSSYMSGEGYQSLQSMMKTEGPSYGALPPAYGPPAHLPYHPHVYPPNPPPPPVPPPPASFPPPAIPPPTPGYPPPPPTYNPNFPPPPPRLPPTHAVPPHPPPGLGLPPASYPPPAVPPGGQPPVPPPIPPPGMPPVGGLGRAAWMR
Kind of assay: CDK Enzymatic Assays (HTRF, LANCE Ultra kinase assay), Example A1. In kind it is biochemical. The conditions noted are these: enzyme pre-incubated with compounds for 60 minutes prior to addition of ATP (1 mM final) and Ulight-peptide; reaction 60-90 minutes at room temperature. From the text: Example A1. CDK Enzymatic Assays
The following activity of the CDK enzymes in complex with their respective cyclins we assayed: CDK1 complexed with Cyclin B1; CDK2 complexed with Cyclin E1; CDK4 complexed with Cyclin D1; CDK6 complexed with Cyclin D1; CDK6 complexed with Cyclin D3; CDK9 complexed with Cyclin T1; CDK7 complexed with Cyclin H/MAT1; CDK2 complexed with Cyclin A2; CDK5 complexed with p35; CDK12 complexed with Cyclin K; CDK13 complexed with Cyclin K. These in vitro enzyme activity are assayed using homogeneous time-resolved energy transfer (HTRF), which measures phosphorylation of a peptide substrate. The LANCER Ultra kinase assay (PerkinElmer) uses a ULight™-labeled EIF4E-binding protein 1 (THR37/46) peptide (DYSTTPGGTLFSTTPGTRI (SEQ ID NO: 1)) substrate and a Europium-labeled anti-phospho-4E-BP1 antibody (CDK2, CDK1, CDK4, CDK6, CDK9, CDK12, CDK13) or ULight™-labeled Myelin Basic Protein peptide (VTPRTPPP (SEQ ID NO: 2)) substrate and a Europium-labeled anti-phospho-MBP antibody (CDK7). Each CDK enzyme activity assays utilized human CDK co-expressed as N-terminal GST-tagged protein with its full length cyclin partner using a baculovirus expression system.
Enzyme was pre-incubated with compounds for 30 minutes (CDK1,2,4,6,9) or 60 minutes (CDK7, CDK12, CDK13) prior to addition of ATP and Ulight-peptide (1 mM and 50 nM final, respectively), in assay buffer containing 50 mM HEPES pH 7.5, 1 mM EGTA, 10 mM MgCl2, 2 mM DTT, 0.05 mg/mL BSA, and 0.01% Tween 20. The reaction was then incubated for 60-90 minutes at room temperature. The reactions were stopped by the addition of EDTA and Europium labeled antibody, for a final concentration of 15 mM and 1.0-1.5 nM, respectively. HTRF signals were read after 15-120 minutes. A ratio of fluorescence transferred to the labeled substrate (665 nm) relative to fluorescence of the Europium donor (620 nm) represents the extent of phosphorylation. Ratios for treated wells were normalized to DMSO only (100% activity) and no enzyme (0% activity) controls. Normalized data was analyzed using a three or four parameter dose response curve to determine IC50 for each compound and are shown in Table A. Control reference inhibitors were included on each plate.
As a reminder, the IC50 is the point on the concentration scale where inhibition reaches its midpoint. As for `C=CC(=O)Nc1cccc2c(N3CCC[C@@H](Nc4ncc(C#N)c(OC)n4)C3)noc12` [Example 28, (R)—N-(3-(3-((5-Cyano-4-methoxypyrimidin-2-yl)amino)piperidin-1-yl)benzo[d]isoxazol-7-yl)acrylamide], the IC50 is less than 50 nM.

Take `C=CC(=O)Nc1ccc2c(c1)C(=O)N([C@H]1CCC[C@@H](Nc3ncc(C(F)(F)F)s3)C1)C2` [Example 29, N-(3-Oxo-2-((1S,3R)-3-((5-(trifluoromethyl)thiazol-2-yl)amino)cyclohexyl)isoindolin-5-yl)acrylamide]: the IC50 was less than 50 nM.

For the compound `CC#CC(=O)Nc1nn(C)c2cc(N3CCC[C@@H](Nc4ncc(C#N)c(OC)n4)C3)ncc12` [Example 30, (R)—N-(6-(3-((5-Cyano-4-methoxypyrimidin-2-yl)amino)piperidin-1-yl)-1-methyl-1H-pyrazolo[4,3-c]pyridin-3-yl)but-2-ynamide], the IC50 is less than 50 nM. Under `CCC(Br)C(=O)Nc1nn(C)c2cc(N3CCC[C@@H](Nc4ncc(C#N)c(OC)n4)C3)ncc12` (stereo partly drawn) [Example 31, 2-Bromo-N-(6-((R)-3-((5-cyano-4-methoxypyrimidin-2-yl)amino)piperidin-1-yl)-1-methyl-1H-pyrazolo[4,3-c]pyridin-3-yl)butanamide] stands less than 50 nM; under `COc1nc(N[C@@H]2CCCN(c3cc4c(cn3)c(NC(=O)C(C)Br)nn4C)C2)ncc1C#N` (stereo partly drawn) [Example 32, 2-Bromo-N-(6-((R)-3-((5-cyano-4-methoxypyrimidin-2-yl)amino)piperidin-1-yl)-1-methyl-1H-pyrazolo[4,3-c]pyridin-3-yl)propanamide], less than 50 nM; under `COc1nc(N[C@@H]2CCCN(c3cc4c(cn3)c(NC(=O)CCl)nn4C)C2)ncc1C#N` [Example 33, (R)-2-Chloro-N-(6-(3-((5-cyano-4-methoxypyrimidin-2-yl)amino)piperidin-1-yl)-1-methyl-1H-pyrazolo[4,3-c]pyridin-3-yl)acetamide], less than 50 nM. To `C=CC(=O)Nc1cnc2c(N3CCC[C@@H](Nc4ncc(C#N)c(OC)n4)C3)nccn12` [Example 34, (R)—N-(8-(3-((5-Cyano-4-methoxypyrimidin-2-yl)amino)piperidin-1-yl)imidazo[1,2-a]pyrazin-3-yl)acrylamide] belongs less than 50 nM. Regarding `C=CC(=O)Nc1cccc2c(N3CCC[C@@H](Nc4ncc(C#N)c(OC)n4)C3)nn(C)c12` [Example 35, (R)—N-(3-(3-((5-Cyano-4-methoxypyrimidin-2-yl)amino)piperidin-1-yl)-1-methyl-1H-indazol-7-yl)acrylamide], the IC50 is less than 50 nM.

Take `C=CC(=O)Nc1ccc2oc(N3CCC[C@@H](Nc4ncc(C#N)c(OC)n4)C3)nc2c1` [Example 36, (R)—N-(2-(3-((5-Cyano-4-methoxypyrimidin-2-yl)amino)piperidin-1-yl)benzo[d]oxazol-5-yl)acrylamide]: the IC50 is less than 50 nM. For `C=CC(=O)Nc1ccc2c(c1)nc(N1CCC[C@@H](Nc3ncc(C#N)c(OC)n3)C1)n2C` [Example 37, (R)—N-(2-(3-((5-Cyano-4-methoxypyrimidin-2-yl)amino)piperidin-1-yl)-1-methyl-1H-benzo[d]imidazol-5-yl)acrylamide], the IC50 is less than 50 nM. Under `C=CC(=O)Nc1cncc2sc(N3CC[C@@H](Nc4ncc(C#N)c(OC)n4)C3)nc12` [Example 38, (R)—N-(2-(3-((5-Cyano-4-methoxypyrimidin-2-yl)amino)pyrrolidin-1-yl)thiazolo[5,4-c]pyridin-7-yl)acrylamide] stands less than 50 nM; under `C=CC(=O)Nc1ccc2c(c1)cc(N1CCC[C@@H](Nc3ncc(C#N)c(OC)n3)C1)n2C` [Example 39, (R)—N-(2-(3-((5-Cyano-4-methoxypyrimidin-2-yl)amino)piperidin-1-yl)-1-methyl-1H-indol-5-yl)acrylamide], more than 500 nM; under `C=CC(=O)Nc1ccc2sc(N3CCC[C@@H](Nc4ncc(C#N)c(OC)n4)C3)nc2c1` [Example 40, (R)—N-(2-(3-((5-Cyano-4-methoxypyrimidin-2-yl)amino)piperidin-1-yl)benzo[d]thiazol-5-yl)acrylamide], less than 50 nM.

As to `C=CC(=O)Nc1ccc2sc(N3CC[C@@H](Nc4ncc(C#N)c(OC)n4)C3)nc2c1` [Example 41, (R)—N-(2-(3-((5-Cyano-4-methoxypyrimidin-2-yl)amino)pyrrolidin-1-yl)benzo[d]thiazol-5-yl)acrylamide], the IC50 is less than 50 nM. Under `C=CC(=O)Nc1ccc2c(N3CCC[C@@H](Nc4ncc(C#N)c(OC)n4)C3)csc2c1` [Example 42, (R)—N-(3-(3-((5-Cyano-4-methoxypyrimidin-2-yl)amino)piperidin-1-yl)benzo[b]thiophen-6-yl)acrylamide] stands 50 to 500 nM; under `C=CC(=O)Nc1ccc2c(N3CCC[C@@H](Nc4ncc(C#N)c(OC)n4)C3)nn(C)c2c1` [Example 43, (R)—N-(3-(3-((5-Cyano-4-methoxypyrimidin-2-yl)amino)piperidin-1-yl)-1-methyl-1H-indazol-6-yl)acrylamide], less than 50 nM; under `C=CC(=O)Nc1ccc2nc(N3CCC[C@@H](Nc4ncc(C#N)c(OC)n4)C3)nn2c1` [Example 44, (R)—N-(2-(3-((5-Cyano-4-methoxypyrimidin-2-yl)amino)piperidin-1-yl)-[1,2,4]triazolo[1,5-a]pyridin-6-yl)acrylamide], less than 50 nM. Under `C=CC(=O)Nc1ccc2nc(N3CC[C@@H](Nc4ncc(C#N)c(OC)n4)C3)nn2c1` [Example 45, (R)—N-(2-(3-((5-Cyano-4-methoxypyrimidin-2-yl)amino)pyrrolidin-1-yl)-[1,2,4]triazolo[1,5-a]pyridin-6-yl)acrylamide] stands less than 50 nM; under `C=CC(=O)Nc1ccc2nc(N3CCC[C@@H](Nc4ncc(C#N)c(OC)n4)C3)sc2c1` [Example 46, (R)—N-(2-(3-((5-Cyano-4-methoxypyrimidin-2-yl)amino)piperidin-1-yl)benzo[d]thiazol-6-yl)acrylamide], less than 50 nM; under `C=CC(=O)Nc1ccc2c(c1)nc([C@H]1CCC[C@@H](Nc3ncc(C#N)c(OC)n3)C1)n2CCO` [Example 47, N-(2-((1S,3R)-3-((5-Cyano-4-methoxypyrimidin-2-yl)amino)cyclohexyl)-1-(2-hydroxyethyl)-1H-benzo[d]imidazol-5-yl)acrylamide], less than 50 nM. As for `CCOC(=O)/C=C/C(=O)Nc1ccc2c(c1)nc([C@H]1CCC[C@@H](Nc3ncc(C#N)c(OC)n3)C1)n2C` [Example 48, Ethyl (E)-4-((2-((1S,3R)-3-((5-Cyano-4-methoxypyrimidin-2-yl)amino)cyclohexyl)-1-methyl-1H-benzo[d]imidazol-5-yl)amino)-4-oxobut-2-enoate], the IC50 was less than 50 nM.

For `CCC(Br)C(=O)Nc1ccc2c(c1)nc([C@H]1CCC[C@@H](Nc3ncc(C#N)c(OC)n3)C1)n2C` (stereo partly drawn) [Example 49, 2-Bromo-N-(2-((1S,3R)-3-((5-cyano-4-methoxypyrimidin-2-yl)amino)cyclohexyl)-1-methyl-1H-benzo[d]imidazol-5-yl)butanamide], the IC50 is less than 50 nM. Under `COc1nc(N[C@@H]2CCC[C@H](c3nc4cc(NC(=O)CCl)ccc4n3C)C2)ncc1C#N` [Example 50, 2-Chloro-N-(2-((1S,3R)-3-((5-cyano-4-methoxypyrimidin-2-yl)amino)cyclohexyl)-1-methyl-1H-benzo[d]imidazol-5-yl)acetamide] stands less than 50 nM; under `COc1nc(N[C@@H]2CCC[C@H](c3nc4cc(NC(=O)C5OC5C(=O)O)ccc4n3C)C2)ncc1C#N` (stereo partly drawn) [Example 51, 3-((2-((1S,3R)-3-((5-Cyano-4-methoxypyrimidin-2-yl)amino)cyclohexyl)-1-methyl-1H-benzo[d]imidazol-5-yl)carbamoyl)oxirane-2-carboxylic acid], 50 to 500 nM. To `COc1nc(N[C@@H]2CCC[C@H](c3nc4cc(NC(=O)C(C)Br)ccc4n3C)C2)ncc1C#N` (stereo partly drawn) [Example 52, 2-Bromo-N-(2-((1S,3R)-3-((5-cyano-4-methoxypyrimidin-2-yl)amino)cyclohexyl)-1-methyl-1H-benzo[d]imidazol-5-yl)propanamide] belongs less than 50 nM; to `C=C(F)C(=O)Nc1ccc2c(c1)nc([C@H]1CCC[C@@H](Nc3ncc(C#N)c(OC)n3)C1)n2C` [Example 53, N-(2-((1S,3R)-3-((5-Cyano-4-methoxypyrimidin-2-yl)amino)cyclohexyl)-1-methyl-1H-benzo[d]imidazol-5-yl)-2-fluoroacrylamide], 50 to 500 nM.

Values taken from patent US12643881B2, “Bicyclic amine CDK12 inhibitors” (Incyte Corporation, priority 2021, dated 2026).
